From patent US20250171462A1 (NICO Therapeutics, Inc., priority 2022, published 2025)
Read-outs that look alike come from different tables or passages of the source.

Target: T1, full-length SARM1 (FL-SARM1) (Homo sapiens, UniProt Q6SZW1)
T1 sequence (Q6SZW1 28-724): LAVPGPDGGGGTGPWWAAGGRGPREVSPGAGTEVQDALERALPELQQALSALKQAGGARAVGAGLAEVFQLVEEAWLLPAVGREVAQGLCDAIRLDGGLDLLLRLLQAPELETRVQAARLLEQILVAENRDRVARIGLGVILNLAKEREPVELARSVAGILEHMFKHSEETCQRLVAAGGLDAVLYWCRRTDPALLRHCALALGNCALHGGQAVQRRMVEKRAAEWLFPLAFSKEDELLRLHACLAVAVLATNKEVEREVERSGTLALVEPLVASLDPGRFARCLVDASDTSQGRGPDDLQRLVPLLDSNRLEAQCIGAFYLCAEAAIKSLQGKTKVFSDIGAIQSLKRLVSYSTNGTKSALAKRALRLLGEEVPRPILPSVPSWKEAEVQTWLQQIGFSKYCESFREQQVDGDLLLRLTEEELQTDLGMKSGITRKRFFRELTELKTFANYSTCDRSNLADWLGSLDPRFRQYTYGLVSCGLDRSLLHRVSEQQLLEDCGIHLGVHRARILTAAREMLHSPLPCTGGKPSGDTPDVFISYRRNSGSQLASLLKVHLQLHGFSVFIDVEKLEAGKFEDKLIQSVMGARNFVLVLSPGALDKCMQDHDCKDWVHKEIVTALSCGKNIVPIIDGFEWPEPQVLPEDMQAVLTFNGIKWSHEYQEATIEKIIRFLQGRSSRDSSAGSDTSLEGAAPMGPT
Experiment: FL-SARM1 cellular lysate assay (NAD/NADH-Glo detection of remaining NAD+, NMN-activated)

[1] = Activity (μM) (IC50), 11 point curve
[2] = read-out: Activity (IC50 class), 11 point curve
[3] = Activity (IC50 class), 11 point curve

Compound	IC50 [1] [µM]	IC50 [2] [µM]	IC50 [3] [µM]
Cc1ccc(NC(=O)N2C3CCCC2C3)cc1-c1ccc(F)cn1 [Example 40, N-(3-(5-fluoropyridin-2-yl)-4-methylphenyl)-6-azabicyclo[3.1.1]heptane-6-carboxamide]	0.08	0.0001 to 1	
Cc1ccc(NC(=O)[C@H]2C[C@H]3C[C@H]3N2c2ccncn2)cc1-c1ncc(F)cn1 [Example 265, (1R,3R,5R)-N-[3-(5-fluoropyrimidin-2-yl)-4-methylphenyl]-2-pyrimidin-4-yl-2-azabicyclo[3.1.0]hexane-3-carboxamide]	1.9		1 to 10
Cc1ccc(NC(=O)C(C)C2CCC2)cc1-c1cccnn1 (racemic) [Example 297, 2-cyclobutyl-N-(4-methyl-3-pyridazin-3-ylphenyl)propanamide]	6.5		1 to 10
Cc1ccc(NC(=O)N2C3CC2CC(C(F)(F)F)C3)cc1-c1ccccn1 (single isomer, unassigned) [Example 86, N-(4-methyl-3-pyridin-2-ylphenyl)-3-(trifluoromethyl)-6-azabicyclo[3.1.1]heptane-6-carboxamide]	0.01	0.0001 to 1	
Cc1ccc(NC(=O)[C@@H]2CC2(F)F)cc1-c1ccccn1 [Example 142, (1S)-2,2-difluoro-N-(4-methyl-3-pyridin-2-ylphenyl)cyclopropane-1-carboxamide]	2.6		1 to 10
CCc1ccc(-c2cc(NC(=O)[C@@H]3CC3(F)F)ccc2C)nc1 [Example 146, (1S)-N-[3-(5-ethylpyridin-2-yl)-4-methylphenyl]-2,2-difluorocyclopropane-1-carboxamide]	7.3		1 to 10
CC1(c2ccc(NC(=O)[C@@H]3CC3(F)F)cc2-c2ccccn2)CC1 [Example 133, (1S)-2,2-difluoro-N-[4-(1-methylcyclopropyl)-3-pyridin-2-ylphenyl]cyclopropane-1-carboxamide]	24		> 10
Cc1ccc(NC(=O)C2[C@@H]3CC[C@@]2(c2ccnn2C)C3)cc1-c1ncc(F)cn1 (single isomer, unassigned) [Example 204, N-[3-(5-fluoropyrimidin-2-yl)-4-methylphenyl]-1-(2-methylpyrazol-3-yl)bicyclo[2.1.1]hexane-5-carboxamide]	0.5	0.0001 to 1	
Cc1ccc(NC(=O)C2C3CC(C3)N2c2ccccn2)cc1-c1ncc(F)cn1 (centres unmarked) [Example 271, N-(3-(5-fluoropyrimidin-2-yl)-4-methylphenyl)-2-(pyridin-2-yl)-2-azabicyclo[2.1.1]hexane-3-carboxamide]	17		> 10
CCOC(C)[C@@]12CC(C[C@@H](C)C1)N2C(=O)Nc1ccc(C)c(-c2ncc(F)cn2)c1 (single isomer, unassigned) [Example 186]	0.2	0.0001 to 1	
Cc1ccc(NC(=O)C(C)C(F)(F)F)cc1-c1ncccn1 (racemic) [Example 169, 3,3,3-trifluoro-2-methyl-N-(4-methyl-3-pyrimidin-2-ylphenyl)propanamide]	21		> 10
Cc1ccc(NC(=O)[C@@H]2[C@@H]3CC[C@H]2N(CC(F)(F)F)C3)cc1-c1ccccn1 (single isomer, unassigned) [Example 105, trans-N-(4-methyl-3-(pyridin-2-yl)phenyl)-2-(2,2,2-trifluoroethyl)-2-azabicyclo[2.2.1]heptane-7-carboxamide]	17		> 10
CCc1ccc(NC(=O)N2C3CCCC2C3)cc1-c1ccccn1 [Example 30, N-(4-ethyl-3-(pyridin-2-yl)phenyl)-6-azabicyclo[3.1.1]heptane-6-carboxamide]	0.2	0.0001 to 1	
Cc1ccc(NC(=O)N2C3CC2CN(C(C)C(F)(F)F)C3)cc1-c1ccccn1 (centres unmarked) [Example 2, N-(4-Methyl-3-(pyridin-2-yl)phenyl)-3-(1,1,1-trifluoropropan-2-yl)-3,6-diazabicyclo[3.1.1]heptane-6-carboxamide]	0.7	0.0001 to 1	
COC(C)[C@@]12CC(C[C@@H](C)C1)N2C(=O)Nc1ccc(C(F)(F)F)c(-c2nccnn2)c1 (single isomer, unassigned) [Example 212, cis-N-(3-(1,2,4-triazin-3-yl)-4-(trifluoromethyl)phenyl)-1-(1-methoxyethyl)-3-methyl-6-azabicyclo[3.1.1]heptane-6-carboxamide]	9.6		1 to 10
Cc1ccc(NC(=O)[C@H]2[C@H](C)C2(F)F)cc1-c1ccccn1 (racemic) [Example 135, trans-2,2-difluoro-3-methyl-N-(4-methyl-3-pyridin-2-ylphenyl)cyclopropane-1-carboxamide]	3.3		1 to 10
Cc1ccc(NC(=O)N(C)C(c2ncccn2)C2CCC2)cc1-c1ncc(F)cn1 (racemic) [Example 214, 1-(cyclobutyl(pyrimidin-2-yl)methyl)-3-(3-(5-fluoropyrimidin-2-yl)-4-methylphenyl)-1-methylurea]	3.9		1 to 10
Cc1ccc(NC(=O)CC2CCC2)cc1-c1ccc(F)cn1 [Example 164, 2-cyclobutyl-N-[3-(5-fluoropyridin-2-yl)-4-methylphenyl]acetamide]	1.4		1 to 10
Cc1cc(F)c(NC(=O)N2C3CCCC2C3)cc1-c1nccnn1 [Example 246, N-[2-fluoro-4-methyl-5-(1,2,4-triazin-3-yl)phenyl]-6-azabicyclo[3.1.1]heptane-6-carboxamide]	2		1 to 10
CC[C@H]1C[C@H]1C(=O)Nc1ccc(C)c(-c2ccccn2)c1 (single isomer, unassigned) [Example 110, cis-2-ethyl-N-(4-methyl-3-pyridin-2-ylphenyl)cyclopropane-1-carboxamide]	6		1 to 10
COC(C)[C@@]12CC(C[C@@H](C)C1)N2C(=O)Nc1ccc(C(F)(F)F)c(-c2nccnn2)c1 (single isomer, unassigned) [Example 210, cis-N-(3-(1,2,4-triazin-3-yl)-4-(trifluoromethyl)phenyl)-1-(1-methoxyethyl)-3-methyl-6-azabicyclo[3.1.1]heptane-6-carboxamide]	> 50		> 10
Cc1ccc(NC(=O)[C@H]2CC[C@@H](C)N2c2ccc(F)cn2)cc1-c1ncc(F)cn1 [Example 316]	1.7		1 to 10
Cc1c(Br)cc(NC(=O)N2C3CCCC2C3)cc1-c1ccccn1 [Example 78, N-(3-bromo-4-methyl-5-(pyridin-2-yl)phenyl)-6-azabicyclo[3.1.1]heptane-6-carboxamide]	0.7	0.0001 to 1	
Cc1ccc(NC(=O)C23CC(C(F)(F)F)(C2)C3)cc1-c1ccccn1 [Example 129, N-(4-methyl-3-pyridin-2-ylphenyl)-3-(trifluoromethyl)bicyclo[1.1.1] pentane-1-carboxamide]	9.1		1 to 10
COC(C)[C@@]12CC(C[C@@H](C)C1)N2C(=O)Nc1ccc(C)c(-c2ncc(F)cn2)c1 (stereo partly drawn) [Example 190, cis-N-(3-(5-fluoropyrimidin-2-yl)-4-methylphenyl)-1-(1-methoxyethyl)-3-methyl-6-azabicyclo[3.1.1]heptane-6-carboxamide]	0.2	0.0001 to 1	
